Assay results published in article PMC7707092, “Discovery and characterization of ORM‐11372, a novel inhibitor of the sodium‐calcium exchanger with positive inotropic activity” (British Journal of Pharmacology, 2020).

Legend:
[1] = target: T1, hERG KV11.1 current (I hERG) (Homo sapiens, UniProt Q12809); test: KV11.1 channel current (I hERG), QPatch automated patch‐clamp, CHO–hERG cells; type: cell-based
Excerpt: The hERG‐encoded voltage‐dependent potassium channel current (I hERG) cells to be studied were harvested with Detachin solution and either diluted with a volume of CHO cell serum‐free media (supplemented with 100 IU·ml^−1 of penicillin/streptomycin and 25‐mM HEPES) to obtain cells, for which the cell density was ~4 x10^6 cells·ml^−1, or plated on glass coverslips and used on the following 1–2 days. HEK 293 cells were transiently transfected using lipofectamine (Invitrogen, USA), with a human sodium voltage‐gated channel subunit 5 (hSCN5) A (transcript variant 2)‐containing plasmid, in Optimem medium. […]
In addition, after loading the CHO–hERG cell suspension, whole‐cell voltage‐clamp values were recorded at room temperature on a QPatch 16× automated patch‐clamp (Sophion Biosciences), in the single‐hole mode. […] The hERG tail current was measured as the difference between the peak tail current amplitude during the repolarization step and leak current measurement step. Subsequently, the voltage dependence of the block was also assessed, by carrying out depolarization for 4 s, from −80 to +60 mV in 10‐mV steps, before and after the addition of 20‐μM ORM‐11372 (n = 7). The peak tail current elicited during the 5 s repolarization step to −50 mV was measured and plotted against the preceding depolarization step voltage values.

[2] = target: T1, hERG KV11.1 current (I hERG); test: KV11.1 channel current (I hERG), manual patch‐clamp, CHO cells; type: cell-based
Description: CHO cells stably expressing either hERG1a (KV11.1) channels (KCNH2; RRID:CVCL_H512) or human 5‐HT2B receptors were cultured at 37°C in a 5% CO2/95% air atmosphere in the Ham's Nutrient Mixture F‐12 (HAM F‐12) medium supplemented with 10% FBS (heat inactivated), 100 μg·ml^−1 of hygromycin B (Invitrogen), and 100 μg·ml^−1 of geneticin or 100 IU·ml^−1 of penicillin and 100 IU·ml^−1 of streptomycin, 25‐mM HEPES, 500 μg·ml^−1 of geneticin, and 250 μg·ml^−1 of Zeocin®. Adhered cells were detached using either Detachin® solution or trypsin and replated twice a week. HEK 293 (RRID:CVCL_0045) and IMR‐32 cells (CCL‐127; RRID:CVCL_0346) were cultured similarly but maintained instead in DMEM, supplemented with 10% FBS (heat inactivated), 100 IU·ml^−1 of penicillin and 100 IU·ml^−1 of streptomycin, and 25‐mM HEPES, and in the case of the IMR‐32 cell line, with minimum essential medium (MEM) non‐essential amino acids. IMR‐32 cells are derived from a human neuroblastoma and endogenously express L‐type (CaV1.x) calcium channel (Sher, Gotti, Pandiella, Madeddu, & Clementi, 1988). […]
Values from hERG‐expressing cells (n = 4) were recorded with the standard extracellular solution at the physiological temperature and a pipette solution containing (in mM) 130 KCl, 7 NaCl, 5 EGTA, 1 MgCl2, 5 Na2ATP, and 5 HEPES (pH was set to 7.2 with KOH; osmolarity was adjusted to 290 ± 3 mOsm). […]

T1 sequence (Q12809 whole entry): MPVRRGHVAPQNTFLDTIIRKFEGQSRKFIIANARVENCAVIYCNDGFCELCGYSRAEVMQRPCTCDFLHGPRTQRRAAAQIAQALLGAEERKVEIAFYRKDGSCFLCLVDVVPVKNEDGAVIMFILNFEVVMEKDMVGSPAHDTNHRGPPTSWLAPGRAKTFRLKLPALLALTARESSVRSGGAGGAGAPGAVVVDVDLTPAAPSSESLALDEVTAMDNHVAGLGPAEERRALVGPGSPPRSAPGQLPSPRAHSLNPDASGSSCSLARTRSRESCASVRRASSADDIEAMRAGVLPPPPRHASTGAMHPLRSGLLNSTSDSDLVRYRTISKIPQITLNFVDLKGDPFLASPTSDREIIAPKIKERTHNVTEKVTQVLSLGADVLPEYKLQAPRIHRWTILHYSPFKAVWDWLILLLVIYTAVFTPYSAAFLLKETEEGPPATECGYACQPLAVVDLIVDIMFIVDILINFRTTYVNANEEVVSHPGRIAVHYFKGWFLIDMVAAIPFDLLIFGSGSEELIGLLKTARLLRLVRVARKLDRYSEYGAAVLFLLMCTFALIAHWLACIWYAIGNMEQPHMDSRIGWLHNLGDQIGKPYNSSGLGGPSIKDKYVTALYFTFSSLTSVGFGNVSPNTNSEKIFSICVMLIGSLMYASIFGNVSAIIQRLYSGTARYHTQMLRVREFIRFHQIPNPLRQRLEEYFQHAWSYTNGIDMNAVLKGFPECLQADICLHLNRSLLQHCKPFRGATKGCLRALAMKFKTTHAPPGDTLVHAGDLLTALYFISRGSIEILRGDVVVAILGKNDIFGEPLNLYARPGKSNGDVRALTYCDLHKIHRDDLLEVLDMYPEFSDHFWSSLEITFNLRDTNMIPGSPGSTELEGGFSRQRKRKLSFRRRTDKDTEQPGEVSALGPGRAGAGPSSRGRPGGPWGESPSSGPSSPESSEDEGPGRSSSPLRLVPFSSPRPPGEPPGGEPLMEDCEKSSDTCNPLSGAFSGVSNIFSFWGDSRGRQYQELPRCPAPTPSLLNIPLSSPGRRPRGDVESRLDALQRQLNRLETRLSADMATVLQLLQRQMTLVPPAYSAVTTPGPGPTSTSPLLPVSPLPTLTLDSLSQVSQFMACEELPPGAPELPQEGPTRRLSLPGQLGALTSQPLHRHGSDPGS

**Q.** What does the source list for `Nc1cccc(-c2ccc(CNc3ccc(F)cc3)o2)c1` [ORM‐11372]?
**A.** slope k of I hERG activation curve (Boltzmann fit) ([1]; 20 µM ORM-11372, n=7, control 6.9 ± 0.3 mV): 5.5 ± 0.1 mV; IC50 ([1]; automated patch‐clamp, room temperature): 19.2 µM; safety margin (ratio), I NCX over Kv11.1 current [2]: ≥ 2,000; IC50 ([2]; manual patch‐clamp, physiological temperature): 10 µM
